Results as given in patent EP0414533A1, “Use of iodopropargyl esters of alpha-amino acid derivatives as antimicrobial agents” (ROHM AND HAAS COMPANY, priority 1989, dated 1991).
≈ marks a conversion by molar mass, not a printed value. Like-named read-outs stand apart in the source and are kept apart here.

Key:
[1] = tested on: Aspergillus niger (ANIG); experiment: Minimum inhibitory concentration (MIC), broth two-fold serial dilution test; assay type: cell-based; details: Aspergillus niger, IIIB, trypticase soy broth (complex media); Table IIIb; read-out: MIC (F) ANIG
[2] = tested on: MIXED COOLING TOWER ALGAE; experiment: MIC test against mixed cooling tower algae; assay type: cell-based, green algae and blue-green bacteria; details: Table VIII
Description: The algae culture contains green algae and blue-green bacteria, and is obtained from a cooling tower in Spring House, Pennsylvania. The algae culture is grown in Allen's medium on a rotary shaker under flourescent room lighting. This culture is further diluted with Allen's medium and then added to the test vessel.

[3] = tested on: Piricularia oryzae (PIR); experiment: microbe, parasite or virus in culture; assay type: cell-based
[4] = tested on: Botrytis cinerea (BOC); experiment: In-vitro plant fungicide test; assay type: cell-based; details: Botrytis cinerea
[5] = tested on: Phytophthora capsici (PHY); experiment: In-vitro plant fungicide test; assay type: cell-based; details: Phytophthora capsici
[6] = tested on: Escherichia coli (ECOL); experiment: Minimum inhibitory concentration (MIC), broth two-fold serial dilution test; details: Escherichia coli, IIIB, read-out: MIC (G-) ECOL, trypticase soy broth (complex media); Table IIIb
Source text: (§1) When the test is ready to be done, each vessel in the dilution series, except the first vessel, contains an equal volume of compound free broth. The first vessel contains twice the volume of broth with the starting concentration of test compound. One half of the broth from the first vessel is transferred to the second vessel. After being mixed, one half the resulting volume is removed from the second vessel and transferred to the third vessel. The entire cycle is repeated sufficiently to give a series of concentrations amounting to 500, 250, 125, 63, 31, 16, 8, and 4 ppm (or 100, 50, 25, 12.5, 6.2, 3.1, 1.6, and 0.8), respectively.
(§2) Each vessel is then inoculated with a cell suspension of the appropriate test organism. Bacteria are grown in broth, fungi on agar slants for a time and at a temperature appropriate to the species being tested, and algae are a mixture of green algae and blue-green bacteria grown in a nutrient media. At the end of the growth period, in the case of bacteria, the broth is vortexed to disperse the cells.
(§3) The vessels are then incubated at the appropriate temperature. After the incubation, the vessels are examined for growth/no growth.

[7] = tested on: PSH; experiment: In-vitro plant fungicide test; assay type: cell-based; details: Table IVb, read-out: % Control at (ppm) indicated PSH
[8] = tested on: THREE FUNGI; experiment: MIC test against three fungi in Mycophile Broth, pH 5.0, read after 8 days (Table VII); assay type: cell-based; details: 192 h, serial dilutions from 50 ppm, read after 8 days of incubation
[9] = tested on: Staphylococcus aureus (SAUR); experiment: Minimum inhibitory concentration (MIC), broth two-fold serial dilution test; details: Staphylococcus aureus, IIIB, read-out: MIC (G+) SAUR, trypticase soy broth (complex media); Table IIIb
[10] = tested on: COL; experiment: In-vitro plant fungicide test; assay type: cell-based; details: Table IVb, read-out: % Control at (ppm) indicated COL
[11] = tested on: MON; experiment: In-vitro plant fungicide test; assay type: cell-based; details: Table IVb, read-out: % Control at (ppm) indicated MON
[12] = tested on: 8 FUNGI; experiment: Microbicides secondary test against 8 fungi on Mycophile Agar at pH 5.0 (Table VI); assay type: cell-based; design: key: 1= no growth; 0= growth of the indicated fungi at dose indicated in ppm; details: for ANIG growth: Aspergillus niger; for APUL growth: Aureobasidium pullulans; for CGLO growth: Chaetomium globosum; for CRES growth: Cladosporium resinae; for GTRA growth: Gloeophyllum trabeum; for PFUN growth: Penicillium funiculosum; for RRUB growth: Rhodotorula rubra; for SSER growth: Sacharomyces cerevisiae
Source text: The results of the minimum inhibitory concentration (MIC) tests of compounds of this invention are shown in Tables IIIa IIIb, IIIc, V, VI, VII, and VIII against the microorganisms shown in Table IX.

[13] = tested on: ALT; experiment: In-vitro plant fungicide test; assay type: cell-based; details: Table IVb, read-out: % Control at (ppm) indicated ALT
[14] = tested on: Pseudomonas fluorescens (PSFL); experiment: Minimum inhibitory concentration (MIC), broth two-fold serial dilution test; details: Pseudomonas fluorescens, IIIB, read-out: MIC (G-) PSFL, trypticase soy broth (complex media); Table IIIb
Source text: as §1, §2, §3

[15] = tested on: Pythium ultimum (PYU); experiment: In-vitro plant fungicide test; assay type: cell-based; details: Globisporangium ultimum
[16] = tested on: Septoria nodorum (SEP); experiment: In-vitro plant fungicide test; assay type: cell-based; details: Parastagonospora nodorum

In the case of `O=C(CN1C(=O)c2ccccc2C1=O)OCC#CI` [Compound 30, N-phthaloylglycine iodopropargyl ester], the MIC [1] is reported as 0.12 µg/mL (≈ 0.325 µM), the MIC [2] is reported as 6.2 µg/mL (≈ 16.8 µM) and the inhibition of growth at 1.5 ppm ([3]; 1.5 ppm, read-out: % Control at (ppm) indicated PIR) is reported as 100%. The inhibition of growth at 6 ppm ([3]; 6 ppm, read-out: % Control at (ppm) indicated PIR) was 100%, the inhibition of growth at 25 ppm ([3]; 25 ppm, read-out: % Control at (ppm) indicated PIR) was 100% and the inhibition of growth at 0.2 ppm ([3]; .2 ppm, read-out: % Control at (ppm) indicated PIR) was 0%. For the same molecule, the inhibition of growth at 0.4 ppm ([3]; .4 ppm, read-out: % Control at (ppm) indicated PIR) was 0%, the inhibition of growth at 0.8 ppm ([3]; .8 ppm, read-out: % Control at (ppm) indicated PIR) was 100% and the inhibition of growth at 25 ppm ([3]; read-out: % Control at 25 ppm PIR) was 100%. For the same molecule, the inhibition of growth at 1.5 ppm ([4]; 1.5 ppm, Table IVb, read-out: % Control at (ppm) indicated BOC) was 0%, the inhibition of growth at 6 ppm ([4]; 6 ppm, Table IVb, read-out: % Control at (ppm) indicated BOC) was 0% and the inhibition of growth at 25 ppm ([4]; Table IVa, *=Phytotoxic, read-out: % Control at 25 ppm BOC) was 100%. It also gave an inhibition of growth at 25 ppm ([4]; Table IVb, read-out: % Control at (ppm) indicated BOC) of 90%, an inhibition of growth at 0.2 ppm ([4]; .2 ppm, Table IVb, read-out: % Control at (ppm) indicated BOC) of 0% and an inhibition of growth at 0.4 ppm ([4]; .4 ppm, Table IVb, read-out: % Control at (ppm) indicated BOC) of 0%. The inhibition of growth at 0.8 ppm ([4]; .8 ppm, Table IVb, read-out: % Control at (ppm) indicated BOC) was 0%, the inhibition of growth at 1.5 ppm ([5]; 1.5 ppm, Table IVb, read-out: % Control at (ppm) indicated PHY) was 100% and the inhibition of growth at 6 ppm ([5]; 6 ppm, Table IVb, read-out: % Control at (ppm) indicated PHY) was 100%. It also gave an inhibition of growth at 25 ppm ([5]; Table IVa, read-out: % Control at 25 ppm PHY) of 100%, an inhibition of growth at 25 ppm ([5]; Table IVb, read-out: % Control at (ppm) indicated PHY) of 100% and an inhibition of growth at 0.2 ppm ([5]; .2 ppm, Table IVb, read-out: % Control at (ppm) indicated PHY) of 0%. The inhibition of growth at 0.4 ppm ([5]; .4 ppm, Table IVb, read-out: % Control at (ppm) indicated PHY) was 0%, the inhibition of growth at 0.8 ppm ([5]; .8 ppm, Table IVb, read-out: % Control at (ppm) indicated PHY) was 0% and the MIC [6] was greater than 250 µg/mL. It also gave an inhibition of growth at 1.5 ppm ([7]; 1.5 ppm) of 100%, an inhibition of growth at 6 ppm ([7]; 6 ppm) of 100% and an inhibition of growth at 25 ppm ([7]; 25 ppm) of 100%. For the same molecule, the inhibition of growth at 0.2 ppm ([7]; .2 ppm) was 0%, the inhibition of growth at 0.4 ppm ([7]; .4 ppm) was 100% and the inhibition of growth at 0.8 ppm ([7]; .8 ppm) was 100%. The MIC ([8]; Aspergillus niger, read-out: MIC ANIG) was 12.5 µg/mL (≈ 33.9 µM), the MIC ([8]; Aureobasidium pullulans, read-out: MIC APUL) was 50 µg/mL (≈ 135 µM) and the MIC ([8]; Gloeophyllum trabeum, read-out: MIC GTRA) was 6.2 µg/mL (≈ 16.8 µM). It also gave an MIC [9] greater than 250 µg/mL, an inhibition of growth at 1.5 ppm ([10]; 1.5 ppm) of 0% and an inhibition of growth at 3 ppm ([10]; 3 ppm) of 0%. It also gave an inhibition of growth at 6 ppm ([10]; 6 ppm) of 50%, an inhibition of growth at 12 ppm ([10]; 12 ppm) of 100% and an inhibition of growth at 25 ppm ([10]; 25 ppm) of 100%. For the same molecule, the inhibition of growth at 0.2 ppm ([10]; .2 ppm) was 0%, the inhibition of growth at 0.4 ppm ([10]; .4 ppm) was 0% and the inhibition of growth at 0.8 ppm ([10]; .8 ppm) was 0%. For the same molecule, the inhibition of growth at 1.5 ppm ([11]; 1.5 ppm) was 100%, the inhibition of growth at 6 ppm ([11]; 6 ppm) was 100% and the inhibition of growth at 25 ppm ([11]; 25 ppm) was 100%. The inhibition of growth at 0.2 ppm ([11]; .2 ppm) was 100%, the inhibition of growth at 0.4 ppm ([11]; .4 ppm) was 100% and the inhibition of growth at 0.8 ppm ([11]; .8 ppm) was 100%. For the same molecule, the ANIG growth ([12]; 0.2 PPM) was 0, the ANIG growth ([12]; 1.0 PPM) was 0 and the ANIG growth ([12]; 2.5 PPM) was 0. The ANIG growth ([12]; 25 PPM) was 1, the APUL growth ([12]; 0.2 PPM) was 0 and the APUL growth ([12]; 1.0 PPM) was 0. For the same molecule, the APUL growth ([12]; 2.5 PPM) was 0, the APUL growth ([12]; 25 PPM) was 1 and the CGLO growth ([12]; 0.2 PPM) was 0. It also gave a CGLO growth ([12]; 1.0 PPM) of 0, a CGLO growth ([12]; 2.5 PPM) of 1 and a CGLO growth ([12]; 25 PPM) of 1. The CRES growth ([12]; 0.2 PPM) was 0, the CRES growth ([12]; 1.0 PPM) was 0 and the CRES growth ([12]; 2.5 PPM) was 0. For the same molecule, the CRES growth ([12]; 25 PPM) was 1, the GTRA growth ([12]; 0.2 PPM) was 0 and the GTRA growth ([12]; 1.0 PPM) was 0. It also gave a GTRA growth ([12]; 2.5 PPM) of 1, a GTRA growth ([12]; 25 PPM) of 1 and a PFUN growth ([12]; 0.2 PPM) of 0. For the same molecule, the PFUN growth ([12]; 1.0 PPM) was 0, the PFUN growth ([12]; 2.5 PPM) was 0 and the PFUN growth ([12]; 25 PPM) was 1. The RRUB growth ([12]; 0.2 PPM) was 0, the RRUB growth ([12]; 1.0 PPM) was 0 and the RRUB growth ([12]; 2.5 PPM) was 0. It also gave an RRUB growth ([12]; 25 PPM) of 1, an SSER growth ([12]; 0.2 PPM) of 0 and an SSER growth ([12]; 1.0 PPM) of 0. For the same molecule, the SSER growth ([12]; 2.5 PPM) was 1, the SSER growth ([12]; 25 PPM) was 1 and the inhibition of growth at 1.5 ppm ([13]; 1.5 ppm) was 0%. The inhibition of growth at 3 ppm ([13]; 3 ppm) was 50%, the inhibition of growth at 6 ppm ([13]; 6 ppm) was 90% and the inhibition of growth at 12 ppm ([13]; 12 ppm) was 100%. The inhibition of growth at 25 ppm ([13]; 25 ppm) was 100%, the inhibition of growth at 0.2 ppm ([13]; .2 ppm) was 0% and the inhibition of growth at 0.4 ppm ([13]; .4 ppm) was 0%. For the same molecule, the inhibition of growth at 0.8 ppm ([13]; .8 ppm) was 0%, the MIC [14] was greater than 250 µg/mL and the inhibition of growth at 1.5 ppm ([15]; 1.5 ppm, Table IVb, read-out: % Control at (ppm) indicated PYU) was 100%. For the same molecule, the inhibition of growth at 6 ppm ([15]; 6 ppm, Table IVb, read-out: % Control at (ppm) indicated PYU) was 100%, the inhibition of growth at 25 ppm ([15]; Table IVa, read-out: % Control at 25 ppm PYU) was 100% and the inhibition of growth at 25 ppm ([15]; Table IVb, read-out: % Control at (ppm) indicated PYU) was 100%. The inhibition of growth at 0.2 ppm ([15]; .2 ppm, Table IVb, read-out: % Control at (ppm) indicated PYU) was 100%, the inhibition of growth at 0.4 ppm ([15]; .4 ppm, Table IVb, read-out: % Control at (ppm) indicated PYU) was 100% and the inhibition of growth at 0.8 ppm ([15]; .8 ppm, Table IVb, read-out: % Control at (ppm) indicated PYU) was 100%. The inhibition of growth at 1.5 ppm ([16]; 1.5 ppm, Table IVb, read-out: % Control at (ppm) indicated SEP) was 100%, the inhibition of growth at 6 ppm ([16]; 6 ppm, Table IVb, read-out: % Control at (ppm) indicated SEP) was 100% and the inhibition of growth at 25 ppm ([16]; Table IVa, read-out: % Control at 25 ppm SEP) was 75%. It also gave an inhibition of growth at 25 ppm ([16]; Table IVb, read-out: % Control at (ppm) indicated SEP) of 100%, an inhibition of growth at 0.2 ppm ([16]; .2 ppm, Table IVb, read-out: % Control at (ppm) indicated SEP) of 0% and an inhibition of growth at 0.4 ppm ([16]; .4 ppm, Table IVb, read-out: % Control at (ppm) indicated SEP) of 0%. The inhibition of growth at 0.8 ppm ([16]; .8 ppm, Table IVb, read-out: % Control at (ppm) indicated SEP) was 100%.
